According to patent publication US20080227684A1, “Small Molecule Inhibitors of PDZ Interactions” (priority 2005, published 2008):

Legend:
Experiment in all cases: Matrix modified G-assay, small molecule competition titration
PSD95 d3 = target: T1, PSD95 d3 (Homo sapiens, UniProt P78352); settings: competition with biotinylated PL peptide at GST-PDZ fusion protein; read-out: IC50 PSD95 d3 (relative binding affinity by titration analysis)
T1 construct: made in house
Procedure: (§1) Small Molecule Competition Assay. The reagents, supplies and protocol are as follows:
(§2) Reagents and Supplies: • (1) Nunc Maxisorp 96 well Immuno-plates • (2) PBS pH 7.4 (phosphate buffered saline, 8 g NaCl, 0.29 g KCl, 1.44 g Na2HPO4, 0.24 g • (3) KH2PO4, add H2O to 1 L and pH 7.4; 0.2μ filter) • (4) Assay Buffer: 2% BSA in PBS (20 g of BSA per liter PBS), ICN Biomedicals • (5) Goat anti-GST polyclonal antibody, stock 5 mg/ml, stored at 4° C., (Amersham Pharmacia); Diluted 1:1000 in PBS to a final concentration 5 μg/ml • (6) HRP-Streptavidin, 2.5 mg/2 ml stock stored @ 4° C., Zymed,- dilute 1:2000 into Assay buffer, final [0.5 μg/ml] • (7) Biotinylated peptides (from Anaspec, stored in −20° C. freezer) • (8) GST-PRISM proteins (stock stored @ −80° C., after 1st thaw store in −10° C. freezer) • (9) TMB (3,3′,5,5′, teramethylbensidine), ready to use • (10) 0.18M H2SO4 • (11) 12-w multichannel pipettor • (12) 200 μl LTS tips • (13) 50 ml reagent reservoirs • (14) 50 polypropylene conical tubes • (15) 15 ml polypropylene round-bottom tubes • (16) 1.5 ml microtubes • (17) Molecular Devices microplate reader (450 nm filters) • (18) SoftMax Pro software • (19) Assay buffer (1×PBS, 0.01% Triton X-100)
(§3) Protocol. The wells of eighteen to twenty 96-well plates were coated with 100 μl of 5 μg/ml anti-GST antibody (in each well), and left overnight at 4° C. The plates were then emptied by inverting and tapped dry on paper towels. 200 μl of blocking buffer (1×PBS/2% BSA) was added to each well and the plates were left for 1-2 hrs at room temperature. […] GST-PDZ fusion proteins were diluted to a final concentration of 5 μg/ml in 1×PBS/2% BSA and 50 μl was added to each well. After incubating for 1-2 hours at 4° C. excess unbound fusion protein was removed by washing, i.e., using the automatic plate washer (3× with room temperature 1×PBS).
(§4) PDZ ligand peptides, small molecule test compounds, and HRP were prepared in Assay Buffer as follows: • Biotinylated PDZ ligand synthetic peptides were prepared in one-quarter final volume, i.e., at 4× final concentration; • Steptavidin-HRP conjugate (Zymed) was diluted (1:500) in one-quarter final volume, i.e., at 4× final concentration; • Biotinylated peptides and Streptavidin-HRP were then mixed together, and incubated for 20 min at room temperature to form a signal generating peptide ligand complex; • While the peptide/HRP mix was incubating, test compound dilutions were prepared in half the final volume, i.e., at 2× final concentration; and, • Immediately before adding the final peptide ligand complex mixture to the plate, the drug titration was added to give a mixture with 1× concentrations and the final correct total volume. The signal generating peptide ligand/test compound mixtures were then added to each well of the plates to give 50 μl per well and the time of each addition was recorded. The plates were then incubated at room temperature, after the last peptide had been added, for exactly 30 min. After incubation, the plates were washed using the automatic plate washer (7× with room temperature 1×PBS). To detect the signal generating peptide ligand TMB substrate (for HRP) was added to each well of the plates at 100 μl per well and the time of TMB addition was recorded. The plates were then incubated in the dark at room temperature for a maximum of 30 min. The calorimetric reaction was then stopped using 100 μl of 0.18M H2SO4 30 minutes after adding TMB. The signal in each well of the plates were then determined by measuring the optical density at 450 nm.
(§5) The relative binding affinities of the compounds in FIG. 2A, and other, small molecule inhibitors were determined by titrating the compounds in the same competitive binding assay.

PSD95 d2 = target: T2, PSD95 d2 (Homo sapiens, UniProt P78352); settings: competition with biotinylated PL peptide at GST-PDZ fusion protein; read-out: IC50 PSD95 d2 (relative binding affinity by titration analysis)
T2 construct: made in house
Procedure: as §1, §2, §3, §4, §5

Tip1 = target: T3, Tip1 (Homo sapiens, UniProt O14907); settings: competition with biotinylated PL peptide at GST-PDZ fusion protein; read-out: IC50 Tip1 (relative binding affinity by titration analysis)
T3 construct: made in house
T3 sequence (O14907 15-112 limits assumed): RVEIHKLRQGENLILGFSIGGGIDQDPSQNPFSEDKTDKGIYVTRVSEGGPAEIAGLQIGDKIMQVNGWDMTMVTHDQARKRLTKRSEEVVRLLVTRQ
Procedure: as §1, §2, §3, §4, §5

Shank 1 = target: T4, Shank 1 (Homo sapiens, UniProt Q9Y566); settings: competition with biotinylated PL peptide at GST-PDZ fusion protein; read-out: IC50 Shank 1 (relative binding affinity by titration analysis)
T4 construct: made in house
T4 sequence (Q9Y566 663-757 limits assumed): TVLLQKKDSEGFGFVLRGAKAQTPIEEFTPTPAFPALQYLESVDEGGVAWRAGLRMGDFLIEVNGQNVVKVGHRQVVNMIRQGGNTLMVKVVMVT
Procedure: as §1, §2, §3, §4, §5

Magi1 d1 = target: T5, Magi1 d1 (Homo sapiens, UniProt Q96QZ7); settings: competition with biotinylated PL peptide at GST-PDZ fusion protein; read-out: IC50 Magi1 d1 (relative binding affinity by titration analysis)
T5 construct: made in house
Procedure: as §1, §2, §3, §4, §5

PSD95 d1 = target: T6, PSD95 d1 (Homo sapiens, UniProt P78352); settings: competition with biotinylated PL peptide at GST-PDZ fusion protein; read-out: IC50 PSD95 d1 (relative binding affinity by titration analysis)
T6 construct: made in house
Procedure: as §1, §2, §3, §4, §5

T5 sequence (Q96QZ7 472-554 limits assumed): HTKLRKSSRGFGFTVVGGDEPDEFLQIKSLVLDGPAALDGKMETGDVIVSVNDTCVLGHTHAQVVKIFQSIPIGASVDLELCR

Compound	IC50 (PSD95 d3)	IC50 (PSD95 d2)	IC50 (Tip1)	IC50 (Shank 1)	IC50 (Magi1 d1)	IC50 (PSD95 d1)
CCOc1ccc(NS(=O)(=O)c2cccc(C(=O)Nc3ccccc3C(=O)O)c2)cc1 [Compound 3019-0348]	> 250 µM	> 250 µM	> 250 µM	> 250 µM	> 250 µM	> 250 µM
CC(=O)N1CCc2cc(S(=O)(=O)NC(Cc3ccccc3)C(=O)Nc3ccccc3C(=O)O)ccc21 (stereo not drawn) [Compound C450-0454]	> 250 µM	> 250 µM	> 250 µM	> 250 µM	> 250 µM	206 µM
COc1cccc(-c2nc3c(c(SCC(=O)Nc4cccc(C(=O)O)c4)n2)Cc2c(CO)cnc(C)c2O3)c1 [Compound E544-0129]	3.47 µM	4.98 µM	> 250 µM	7.59 µM	60.8 µM	2.5 µM
O=C(NCCO)C(=O)Nc1ccccc1C(=O)O [MC 247808]	> 250 µM	221 µM	> 250 µM	> 250 µM	> 250 µM	> 250 µM

Now from value to compound:

IC50 (PSD95 d3)	IC50 (PSD95 d2)	IC50 (Tip1)	IC50 (Shank 1)	IC50 (Magi1 d1)	IC50 (PSD95 d1)	Compound
> 250 µM	> 250 µM	> 250 µM	> 250 µM	130 µM	> 250 µM	O=C(Nc1ccccc1C(=O)O)c1cccc(NC(=O)C(c2ccccc2)c2ccccc2)c1 [Compound 3289-2331]
> 250 µM	> 250 µM	> 250 µM	> 250 µM	> 250 µM	> 250 µM	Cc1ccc([N+](=O)[O-])cc1NC(=O)c1cc(S(=O)(=O)Nc2cccc(C(=O)O)c2)c(Cl)cc1Cl [Compound 8009-5039]
> 250 µM	> 250 µM	> 250 µM	> 250 µM	> 250 µM	> 250 µM	CCOc1ccc(NS(=O)(=O)c2cc(C(=O)Nc3ccccc3C(=O)O)ccc2C)cc1 [Compound 3558-0042]
